A word on the IC50: it is the midpoint of a concentration-inhibition curve. Low values mean higher potency, high ones lower potency. Usually EC50 stands for the concentration that produces a half-maximal response. Low readings indicate higher potency in that assay, high ones lower potency in that assay.

For test [1], the target named is T1, Vanilloid receptor (Rattus norvegicus, UniProt Q9ERZ8+Q9WUD2+O35433). The experiment in a line: Ability to inhibit [Ca2+] influx neonatal rat cultured spinal sensory neurons. Format: functional.
Test [2] has as its target T1, Vanilloid receptor. The test is described as follows: Ability to cause [Ca2+] influx in neonatal rat cultured spinal sensory neurons. It is filed as functional.

`CCC(CCc1ccc(O)c(OC)c1)NC(=O)NCCc1ccccc1` (stereo not given): the IC50 at Vanilloid receptor [1] was more than 30 µM. This compound came in with an EC50 at Vanilloid receptor [2] of more than 100 µM.
Taken in the same sequence, the figures for `Oc1cc2c(cc1O)CN(C(=S)NCCc1ccc(Cl)cc1)CCC2` [CAPSAZEPINE] were 0.6 µM and more than 100 µM.
As to `COc1cc(CCC(CCc2ccc(C(F)(F)F)cc2)O/C(S)=N/CCc2ccccc2)ccc1O` (stereo not given), the IC50 on Vanilloid receptor [1] is 10.7 µM. Moreover, the EC50 at Vanilloid receptor [2] was more than 100 µM.
Regarding `CCC(CCc1ccc(O)c(OC)c1)C/C(S)=N/CCc1ccccc1` (stereo not given), the concentration for half-maximal inhibition (IC50) at Vanilloid receptor [1] was more than 30 µM. The same compound had an EC50 at Vanilloid receptor [2] of more than 100 µM.
Taken in the same sequence, the figures for `COc1cc(CCC(C)O/C(S)=N/CCc2ccccc2)ccc1O` (stereo not given) were 9.9 µM and more than 100 µM.
Taken in the same sequence, the figures for `CCC(CCc1ccc(O)c(OC)c1)N(Cc1ccccc1)/C(S)=N/CCc1ccccc1` (stereo not given) were 20.9 µM and more than 100 µM.
In the case of `COc1cc(CCC(CCCc2ccccc2)O/C(S)=N/CCc2ccccc2)ccc1O` (stereo not given), the IC50 against Vanilloid receptor [1] was more than 30 µM. On Vanilloid receptor [2], this compound came in with an EC50 of more than 100 µM.
`COc1cc(CCCO/C(S)=N/CCc2ccccc2)ccc1O` returned an IC50 on Vanilloid receptor [1] of more than 30 µM. The compound also gave an EC50 on Vanilloid receptor [2] of more than 100 µM.
For the compound `COc1cc(CCC(CCc2ccccc2)O/C(S)=N/CCc2ccccc2)ccc1O` (stereo not given), the IC50 at Vanilloid receptor [1] came to 19.2 µM. The compound further came in with an EC50 on Vanilloid receptor [2] of more than 100 µM.
Taken in the same sequence, the figures for `CCC(CCc1ccc(O)c(OC)c1)O/C(S)=N/CCc1ccccc1` (stereo not given) were 6.3 µM and more than 100 µM.
Turning to `CCCC(CCc1ccc(O)c(OC)c1)O/C(S)=N/CCc1ccccc1` (stereo not given), the concentration for half-maximal inhibition (IC50) against Vanilloid receptor [1] was 27.9 µM. On Vanilloid receptor [2], this compound registered a concentration giving a half-maximal response (EC50) of more than 100 µM.
Taken in the same sequence, the figures for `COc1cc(CCCC(C)O/C(S)=N/CCc2ccccc2)ccc1O` (stereo not given) were more than 30 µM and more than 100 µM.
In turn, `CCC(CCc1ccc(O)c(OC)c1)/N=C(\S)NCCc1ccccc1` (stereo not given) registered a 50% inhibitory concentration (IC50) on Vanilloid receptor [1] of 28.5 µM. Further, the EC50 at Vanilloid receptor [2] is more than 100 µM.
Taken in the same sequence, the figures for `CCC(CCc1ccc(O)c(OC)c1)OC(=O)NCCc1ccccc1` (stereo not given) were more than 30 µM and more than 100 µM.
Taken in the same sequence, the figures for `COc1cc(CCC(Cc2ccccc2)O/C(S)=N/CCc2ccccc2)ccc1O` (stereo not given) were 25 µM and more than 100 µM.
`COc1cc(CCC(O/C(S)=N/CCc2ccccc2)c2ccccc2)ccc1O` (stereo not given) gave an IC50 against Vanilloid receptor [1] of more than 30 µM. The EC50 at Vanilloid receptor [2] was more than 100 µM.
Taken in the same sequence, the figures for `CCC(CCc1ccc(O)c(OC)c1)CC(=O)NCCc1ccccc1` (stereo not given) were more than 30 µM and more than 100 µM.
Taken in the same sequence, the figures for `CCC(CCc1ccc(O)c(OC)c1)N(CCc1ccccc1)/C(S)=N/CCc1ccccc1` (stereo not given) were more than 30 µM and more than 100 µM.
At Vanilloid receptor [1], `COc1cc(CC(C)O/C(S)=N/CCc2ccccc2)ccc1O` (stereo not given) had an IC50 of more than 30 µM. The same compound yielded an EC50 on Vanilloid receptor [2] of more than 100 µM.
Taken in the same sequence, the figures for `CCC(CCc1ccc(O)c(OC)c1)N(C)/C(S)=N/CCc1ccccc1` (stereo not given) were 27.2 µM and more than 100 µM.

(Values after ChEMBL document CHEMBL1136430, “Chain-branched acyclic phenethylthiocarbamates as vanilloid receptor antagonists” (Bioorg Med Chem Lett, 2003).)
